Reference: patent US20250042873A1, “COMPOSITIONS AND METHODS FOR TREATING PROTEOTOXICITY-ASSOCIATED DISEASES” (priority 2021, published 2025)
Entries after “also recorded” stand apart in the source; their conditions may differ.

Tests used:
SOD1G93A ALS mouse model [1] = test: Motor performance in the SOD1G93A ALS mouse model (Rotarod behavioral assays); format: in vivo; settings: intraperitoneal injections at the same drug concentration, compared with UNC669, FIG. 3J
Method: The effect of UNC669 was tested on one of the most characterized mouse model of proteotoxicity, the SOD1G93A ALS model.
A number of the newly synthesized UNC669 analogs have been tested for their effects on the clearance of misfolded proteins in the cells.

[2] = test system: tau protein expressed in human HEK293 cells; test: Clearance of tau protein expressed in human HEK293 cells; format: cell-based; settings: FIG. 4B
[3] = Brain penetration and pharmacokinetic studies using mass spectrometry analysis after intraperitoneal administration; format: in vivo; settings: mice; for blood-brain barrier penetration (detection in brain and spinal cord tissues): within minutes after intraperitoneal administration, mass spectrometry
SOD1G93A ALS mouse model [4] = settings: SOD1G93A mice, 17 mg/kg intraperitoneal, weekly from 8 weeks of age, after 12 weeks, FIG. 2B (prior art); cited from earlier work
[5] = test system: misfolded mutant SOD1 in the spinal cords; settings: FIG. 2D (prior art), cited from earlier work

concentrations in the plasma, brain, or spinal cords ([3]; 3 hours after intraperitoneal administration, FX8 vs FX6 or UNC669, FIG. 3I)	blood-brain barrier penetration (detection in brain and spinal cord tissues) [3]	Structure (SMILES)	effect on improving motor performance (Rotarod) (SOD1G93A ALS mouse model [1])	clearance / levels of tau protein [2]	motor ability / motor performance of the animals (SOD1G93A ALS mouse model [4])	neuronal / motor neuron health (CHAT staining) ([5]; SOD1-G93A mice spinal cords)	immunostaining of spinal cords with antibody specific for misfolded proteins ([5]; SOD1-G93A mice)
highest levels of accumulation	can penetrate the blood-brain barrier	N#Cc1cccc(C(=O)N2CCC(N3CCCC3)CC2)n1 [FX8]	greater effects on improving the animals' motor performance	higher efficacy	–	–	–
–	can penetrate the blood-brain barrier	O=C(c1cncc(Cl)c1)N1CCC(N2CCCC2)CC1 [FX6]	greater effects on improving the animals' motor performance	higher efficacy	–	–	–
–	–	O=C(c1cncc(Br)c1)N1CCC(N2CCCC2)CC1 [UNC669]	–	decrease the levels of tau proteins; also recorded: enhanced clearance of tau protein	improvement in the animals' motor performance; also recorded: improves the motor ability of the animals	improved the health of the motor neurons; also recorded: improved neuronal health	reduction of the mutant protein
